Source: paper PMC4893628, “Chalcone-based Selective Inhibitors of a C4 Plant Key Enzyme as Novel Potential Herbicides” (Scientific Reports, 2016)
Where two headings read alike, the source gives them in different places.

How the values were obtained:
Amaranthus retroflexus = assay: In planta growth experiment, A. retroflexus; format: in vivo
Excerpt: Seeds of Amaranthus retroflexus L. (Herbiseed, Twyford, UK) and Brassica napus L. cv. Mozart (Norddeutsche Pflanzenzucht Hans-Georg Lembke KG, Holtsee, Germany) were sown in vermiculite for germination. When cotyledons were fully expanded, seedlings were transplanted into plastic pots with a volume of 0.230 L filled with a substrate containing 50% bottom ash (0–4 mm), 30% peat and 20% pumice gravel (0–4 mm). Plants were watered every other day with 0.03% Hakaphos® Grün solution (Compo Expert GmbH, Münster, Germany) by sub-irrigation. Plants were grown in a climate chamber at 22 °C/20 °C day/night temperature and a day/night length of 16 h/8 h. Relative humidity was adjusted to 70% and light intensity was 320 μmol m^−2 s^−1 PAR (Photosynthetically Active Radiation) at plant level.
When seedlings reached the two-leaf growth stage, plant shoots were sprayed from the top with treatment solutions using spray bottles with a spraying angle of 35° (10 ml, neoLab Migge Laborbedarf-Vertriebs GmbH, Heidelberg, Germany). Treatment solutions were applied from a height of 8.5 cm above the pots. Each pot was sprayed once with a solution volume of 0.135 ml. Treatment solutions contained 2.4% (v/v) DMSO (dimethylsulfoxide, Duchefa Biochemie, Haarlem, the Netherlands), 0.1% (v/v) Tween® and the respective compound at a concentration of 3 mM. The control treatment contained 2.4% (v/v) DMSO, and 0.1% (v/v) Tween20. Further details are given in the Supplementary Information. […]
Experimental design and assessments of in planta experiments
We tested eleven compounds in a first experiment. In a follow-up experiment we tested selected […]
chalcone. Each treatment was repeated 12 times, except for oilseed rape in the second experiment (n=10). Pots were arranged in the growth chamber according to a fully randomized design. Initial growth of the second leaf of A. retroflexus plants was monitored by aquiring images of each plant from above from day zero to day two after treatment. Images were taken […]
from a fixed distance at 90° view angle using the camera Canon EOS 70D equipped with a Canon EF 14 mm/2.8 L II USM lens. Leaf area of single leaves was measured using the ImageJ software31, by drawing the leaf contours using a drawing tablet (Cintiq 22HD, Wacom Europe GmbH, Krefeld, Germany). Conversion of pixel to cm was achieved by using a target of known size inside the image. Six days after the treatment, half of the plants were harvested. Leaf area was assessed using a leaf area meter (LI3100C Area Meter, LI-Cor, Lincoln, Nebraska, USA) and samples were oven-dried at 65°C for seven days to obtain dry weight . Thirteen days after the treatment, this procedure was repeated with the second half of plants.
Chlorophyll fluorescence measurements […]
6 mm leaf discs were cut out of the second leaf and immediately placed into 96-well-plates filled with 300 µL 0.125 % Hoagland’s solution with 1 mM MES-KOH (MES-monohydrate, Merck, Darmstadt, Germany) buffered to a pH of 6.5. The treatment solution contained 1.6 % (v/v) DMSO, 0.1 % (v/v) Tween® 20 and 2',3',4',3,4-Pentahydroxychalcone at a concentration of 2 mM. The control treatment contained 1.6 % (v/v) DMSO, 0.1 % (v/v) Tween® 20. Each leaf disc was treated with 1.5 µL solution placed on top of the leaf discs. Plates were sealed with Parafilm and placed into a climate cabinet with 12h/12h day/night-length and a temperature of 22°C at a light intensity of 130 µmol m-2 s-1. 96 hours after treatment, chlorophyll fluorescence measurements were performed on leaf discs using an Imaging PAM M-Series fluorescence camera (Heinz Walz GmbH, Effeltrich, Germany). Leaf discs were dark adapted for 30 minutes, minimum and maximum chlorophyll fluorescence were obtained and leaf discs were illuminated for 30 minutes

[1] = system: Corynebacterium glutamicum ATCC13032; assay: Bacterial growth in microscale cultivation, C. glutamicum; format: cell-based; details: for activity at 0.3 µM / activity at 3 µM / activity at 30 µM: Corynebacterium glutamicum; for Lag Phase: relative to control
Experimental: (§1) The following bacteria were cultivated in the presence of trans-chalcone derived inhibitors: Corynebacterium glutamicum ATCC13032[43], Escherichia coli K-12 MG1655[44], Pseudomonas putida KT2440[45], and Bacillus subtilis 168[46]. The growth of these bacteria was monitored in flower-well plates shaken at 1200 rpm as backscatter at 620 nm (gain 20) using a BioLector® microscale cultivation system (m2p labs, Baesweiler, Germany). For further experimental details please refer to the Supplementary Information.
(§2) medium or the appropriate minimal medium and shaken at 140 rpm overnight. For inoculation of
(§3) the main culture, cells equivalent to an optical density at 600 nm of 0.5 (C. glutamicum, E. coli,
(§4) and P. putida) or 0.25 (B. subtilis) in 800 µL medium were washed and resuspended in fresh
(§5) media. Inhibitor substances were dissolved in DMSO and added to the media to a final
(§6) Since the least polar trans-chalcone and 2’-hydroxychalcone precipitated in the growth media at
(§7) the highest concentrations, the maximal concentration of these compounds was reduced to 400
(§8) µM and 100 µM, respectively. The final backscatter at 620 nm, the growth rate (h-1), and the
(§9) duration of the lag phase of all cultures were determined in a BioLector microscale cultivation
(§10) system in comparison to negative controls supplemented with the solvent DMSO. A longer lag

[2] = system: Escherichia coli K-12 MG1655; assay: Bacterial growth in microscale cultivation, E. coli; format: cell-based; details: for activity at 0.3 µM / activity at 3 µM / activity at 30 µM: Escherichia coli; for Lag Phase: relative to control
Experimental: as §1, §2, §3, §4, §5, §6, §7, §8, §9, §10

With `O=C(/C=C/c1ccccc1)c1ccc(O)c(O)c1O` [Compound 10, 2′,3′,4′-Trihydroxychalcone] the Influence on plants (Amaranthus retroflexus; shoots sprayed, 3 mM) was “Yes”, the dry weight (Amaranthus retroflexus; six days after treatment, both experiments) was “significantly reduced” and the activity at 0.3 µM ([1]; ATCC13032, read-out: Final Backscatter, complex medium, 0.3 µM, relative to control) was 105%. The activity at 3 µM ([1]; ATCC13032, read-out: Final Backscatter, complex medium, 3 µM, relative to control) was 109%, the activity at 30 µM ([1]; ATCC13032, read-out: Final Backscatter, complex medium, 30 µM, relative to control) was 110% and the activity at 0.3 µM ([1]; ATCC13032, read-out: Final Backscatter, minimal medium, 0.3 µM, relative to control) was 103%. For the same molecule, the activity at 3 µM ([1]; ATCC13032, read-out: Final Backscatter, minimal medium, 3 µM, relative to control) was 104%, the activity at 30 µM ([1]; ATCC13032, read-out: Final Backscatter, minimal medium, 30 µM, relative to control) was 104% and the activity at 0.3 µM ([1]; ATCC13032, read-out: Growth rate, complex medium, 0.3 µM, relative to control) was 106%. It also gave an activity at 3 µM ([1]; ATCC13032, read-out: Growth rate, complex medium, 3 µM, relative to control) of 112%, an activity at 30 µM ([1]; ATCC13032, read-out: Growth rate, complex medium, 30 µM, relative to control) of 118% and an activity at 0.3 µM ([1]; ATCC13032, read-out: Growth rate, minimal medium, 0.3 µM, relative to control) of 104%. For the same molecule, the activity at 3 µM ([1]; ATCC13032, read-out: Growth rate, minimal medium, 3 µM, relative to control) was 103%, the activity at 30 µM ([1]; ATCC13032, read-out: Growth rate, minimal medium, 30 µM, relative to control) was 99.3% and the “Lag Phase” value ([1]; complex medium, 0.3 µM) was 100,0%. The “Lag Phase” value ([1]; complex medium, 3 µM) was 97,8%, the “Lag Phase” value ([1]; complex medium, 30 µM) was 94,9% and the “Lag Phase” value ([1]; minimal medium, 0.3 µM) was 97,9%. The “Lag Phase” value ([1]; minimal medium, 3 µM) was 98,6%, the “Lag Phase” value ([1]; minimal medium, 30 µM) was 102,1% and the activity at 0.3 µM ([2]; MG1655, read-out: Final Backscatter, complex medium, 0.3 µM, relative to control) was 106%. For the same molecule, the activity at 3 µM ([2]; MG1655, read-out: Final Backscatter, complex medium, 3 µM, relative to control) was 106%, the activity at 30 µM ([2]; MG1655, read-out: Final Backscatter, complex medium, 30 µM, relative to control) was 98.9% and the activity at 0.3 µM ([2]; MG1655, read-out: Final Backscatter, minimal medium, 0.3 µM, relative to control) was 105%. For the same molecule, the activity at 3 µM ([2]; MG1655, read-out: Final Backscatter, minimal medium, 3 µM, relative to control) was 105%, the activity at 30 µM ([2]; MG1655, read-out: Final Backscatter, minimal medium, 30 µM, relative to control) was 109% and the activity at 0.3 µM ([2]; MG1655, read-out: Growth rate, complex medium, 0.3 µM, relative to control) was 109%. For the same molecule, the activity at 3 µM ([2]; MG1655, read-out: Growth rate, complex medium, 3 µM, relative to control) was 99.8%, the activity at 30 µM ([2]; MG1655, read-out: Growth rate, complex medium, 30 µM, relative to control) was 104% and the activity at 0.3 µM ([2]; MG1655, read-out: Growth rate, minimal medium, 0.3 µM, relative to control) was 96.3%. For the same molecule, the activity at 3 µM ([2]; MG1655, read-out: Growth rate, minimal medium, 3 µM, relative to control) was 92%, the activity at 30 µM ([2]; MG1655, read-out: Growth rate, minimal medium, 30 µM, relative to control) was 99.2% and the “Lag Phase” value ([2]; complex medium, 0.3 µM) was 92,1%. The “Lag Phase” value ([2]; complex medium, 3 µM) was 94,8%, the “Lag Phase” value ([2]; complex medium, 30 µM) was 118,4% and the “Lag Phase” value ([2]; minimal medium, 0.3 µM) was 92,1%. For the same molecule, the “Lag Phase” value ([2]; minimal medium, 3 µM) was 90,6% and the “Lag Phase” value ([2]; minimal medium, 30 µM) was 92,1%.
